# Test results from patent US20230405078A1, “DETECTION AND TREATMENT OF INTESTINAL FIBROSIS” (THE REGENTS OF THE UNIVERSITY OF CALIFORNIA, priority 2020, published 2023).
# Tests used:
# [1] = Basic pharmacokinetics of subcutaneous elafin in RD-treated male mice; type: in vivo; conditions: natural elafin 1 mg/kg subcutaneous
# Description: FIG. 36. Subcutaneous and oral administration of modified elafin inhibited hyperphagia and hyperglycemia in HFD-treated male mice. (A) Elafin (1 mg/kg) was injected into RD-treated male mice subcutaneously. Tail-vein blood samples were collected for elafin ELISA. This mouse experiment was intended for the determination of basic pharmacokinetics of elafin, but not the determination of physiology of elafin. (B) HFD-treated mice were treated with either oral gavage of Elafin-Eudragit formulation (10 mg/kg) daily or subcutaneous injection of PEG-elafin (3.25 mg/kg) every 48 h for 14 days. Serum elafin levels. (C) Serum leptin levels. (D) Serum IFNγ and IL-1β levels. (E) Daily food consumption. (F) Change in fat mass. (G) Change in body weight over 14 days. (H) Fasting blood glucose levels. Each group consists of 8 mice.
# [2] = test system: Primary non-IBD patient-derived colonic fibroblasts; assay: TGF-β1-induced collagen expression in primary non-IBD patient-derived colonic fibroblasts; type: cell-based, human; conditions: TGF-β1 10 ng/ml; elafin 1 μg/ml 24 hours
# Description: Cleveland Clinic IRB directives (IRB #17-1167). Primary non-IBD patient-derived colonic fibroblasts (H6231) were purchased from Cell Biologics. All primary colonic fibroblasts were cultured in fibroblast medium (M2267, Cell Biologics). Human colonic CCD-18Co fibroblasts (ATCC) were cultured in minimal essential medium Eagle's medium (MEM) containing 10% fetal bovine serum and 1% penicillin-streptomycin 6, 20. All fibroblasts were grown to 80% confluence and then switched to serum-free media overnight for experiments.
# For activation of protease-activated receptors (PARs), fibroblasts were pretreated with 0.8% DMSO, 10 μM PAR1 agonist TRAP-6 (HY-P0078, MCE), 10 μM PAR2 agonist SLIGKV-NH2 (Protease-Activated Receptor-2, amide, HY-P0283, MCE), or 0.4 μg/ml PAR2-activating protease recombinant cathepsin S (1183-CY-010, R&D Systems) for 30 minutes. For miR205-5p activation, fibroblasts were transfected with (30 picomoles/well) either control (YM00479902) or miR205-5p miRCURY LNA mimic (YM00472340) from Qiagen via Lipofectamine 3000 transfection reagent (L3000001, ThermoFisher) in Opti-MEM (#31985062, ThermoFisher) overnight. For miR205-5p inhibition, fibroblasts were pretreated with 50nM either control (Y100199006) or miR205-5p power inhibitors (Y104101508-DDA) from Qiagen overnight. […]
# [3] = test system: CD patient-derived PBMCs; assay: Cytokine multiplex assay in serum exosome-preconditioned CD PBMCs; type: cell-based, human; conditions: CDSE-preconditioned CD PBMCs; 1 μg/ml elafin 6 hours
# Description: FIG. 30. Cytokine levels in mouse and human sera and CD-PBMCs. (A) Mouse serum cytokine levels were measured by a 23-plex multiplex assay (#M60009RDPD, Bio-Rad). n=5 mice per group. (B) Human serum cytokines were measured by a 27-plex multiplex assay (#M500KCAFOY, Bio-rad). 12 normal, 23 UC, and 43 CD patients. (C) CD patient-derived PBMCs were preconditioned with stricturing CD patient (CDS) or non-stricturing CD patient (CDNS)-derived serum exosomes for two hours, followed by exposure to either 0.1% TFA or 1 μg/ml elafin for 6 hours. The cell supernatants were collected for a 13-plex cytokine multiplex assay (HSTCMAG28SPMX13, Millipore Sigma). (D) A comparison of cytokine levels in mouse sera, human sera, and conditioned media of CDS and CDNS serum exosome-conditioned CD-PBMCs. ns=no significant difference. ND=below detection range. N/A=unavailable. Mo=monocytes. MO=macrophages, DC=dendritic cells.
# CD PBMCs (#70052, […] Technologies) were cultured in RPMI1640 media containing 10% exosome-depleted fetal bovine serum (A2720803, ThermoFisher) and 1% penicillin-streptomycin. Some groups were conditioned with 100 μg/ml of human serum exosomes from either CDSE or non-stricturing CD (CDNSE) patients to mimic the CD chemical environment for two hours, followed by addition with either 0.1% TFA or 1 μg/ml elafin. […]
substance,measurement,setting,value
Elafin: small (6 kDa) human elastase-specific protease inhibitor and antimicrobial peptide; active form SEQ ID NO: 2 (AQEPVKGPVSTKPGSCPIILIRCAMLNPPNRCLKDTDCPGIKKCCEGSCGMACFVPQ; listed as Homo sapiens),half-life in circulation,[1],3 h
same,TGF-β1 induced COL1A2 and ProCOL1A1 protein expression,[2],reversed
same,T-cell cytokine secretion,[3],did not affect
